Patent US5858751A, “Compositions and methods for producing sialyltransferases” (The Regents of the University of California, priority 1995, dated 1999)

How the values were obtained:
ST3O = target: T1, ST3O (Sus scrofa, UniProt Q02745); assay: Acceptor specificity of ST3O in COS-1 media
T1 sequence (Q02745 28-343 limits assumed): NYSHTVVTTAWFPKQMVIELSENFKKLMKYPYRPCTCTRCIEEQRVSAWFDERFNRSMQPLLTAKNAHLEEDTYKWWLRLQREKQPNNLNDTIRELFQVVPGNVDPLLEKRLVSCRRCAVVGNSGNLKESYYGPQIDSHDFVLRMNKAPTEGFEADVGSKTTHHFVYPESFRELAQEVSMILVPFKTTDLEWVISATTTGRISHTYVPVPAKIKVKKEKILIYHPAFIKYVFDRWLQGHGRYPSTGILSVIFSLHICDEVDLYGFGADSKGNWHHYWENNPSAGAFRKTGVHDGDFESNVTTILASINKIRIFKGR

ST3 = target: T2, ST3 (Homo sapiens, UniProt Q11206); assay: Acceptor specificity of soluble ST3 (AZ3) in COS-1 media; conditions: for sialic acid incorporation by ST3 enzyme: data not shown
T2 sequence (Q11206 1-332 isoform Q11206-2): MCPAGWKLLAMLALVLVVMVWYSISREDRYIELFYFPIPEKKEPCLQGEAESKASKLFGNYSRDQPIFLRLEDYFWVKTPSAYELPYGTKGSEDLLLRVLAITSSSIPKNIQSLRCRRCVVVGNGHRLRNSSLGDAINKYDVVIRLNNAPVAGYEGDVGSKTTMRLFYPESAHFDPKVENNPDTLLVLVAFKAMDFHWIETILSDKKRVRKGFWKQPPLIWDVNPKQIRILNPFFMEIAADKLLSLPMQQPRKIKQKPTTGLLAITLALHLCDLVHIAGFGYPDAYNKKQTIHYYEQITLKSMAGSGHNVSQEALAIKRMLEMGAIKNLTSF

ST3N = assay: Acceptor specificity of ST3N in COS-1 media
human ST3O = target: T3, human ST3O (Homo sapiens, UniProt Q11201); assay: Acceptor specificity of soluble human ST3O; type: biochemical; conditions: acceptor 0.2 mM
T3 construct: lacked the first 44 amino acids of the open reading frame; made in house; host or cells: COS-1 cells (transient, culture medium)
T3 sequence (Q11201 45-340): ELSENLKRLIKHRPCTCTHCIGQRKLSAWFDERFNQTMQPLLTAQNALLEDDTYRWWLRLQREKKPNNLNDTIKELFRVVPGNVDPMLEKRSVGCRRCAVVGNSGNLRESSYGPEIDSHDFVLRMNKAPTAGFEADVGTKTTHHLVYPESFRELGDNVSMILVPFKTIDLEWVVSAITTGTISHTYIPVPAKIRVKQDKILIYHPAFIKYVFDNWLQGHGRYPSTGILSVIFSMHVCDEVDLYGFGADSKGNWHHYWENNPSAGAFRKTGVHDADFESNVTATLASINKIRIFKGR

porcine ST3O = target: T4, porcine ST3O (Sus scrofa, UniProt Q02745); assay: Acceptor specificity of recombinant porcine ST3O; type: biochemical; conditions: acceptor 0.2 mM
T4 sequence (Q02745 28-343 limits assumed): T1 sequence (Q02745 28-343 limits assumed)

rat ST3N = assay: Acceptor specificity of soluble rat ST3N fusion protein; conditions: acceptor 0.2 mM; relative to LNT
human ST3N = target: T5, human ST3N (Homo sapiens, UniProt Q11203); assay: Acceptor specificity of soluble human ST3N fusion protein; conditions: acceptor 0.2 mM; relative to LNT
T5 sequence (Q11203 62-375): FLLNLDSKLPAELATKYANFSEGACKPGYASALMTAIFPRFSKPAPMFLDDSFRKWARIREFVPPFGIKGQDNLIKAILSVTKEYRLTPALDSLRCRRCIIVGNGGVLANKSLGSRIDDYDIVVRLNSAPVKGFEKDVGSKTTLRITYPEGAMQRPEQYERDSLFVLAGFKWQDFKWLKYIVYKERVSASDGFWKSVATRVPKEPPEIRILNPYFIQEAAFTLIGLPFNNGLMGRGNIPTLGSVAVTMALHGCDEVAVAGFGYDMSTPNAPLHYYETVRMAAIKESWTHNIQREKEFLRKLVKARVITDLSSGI

α2,3-N sialyltransferase = target: T6, α2,3-N sialyltransferase (Rattus norvegicus, UniProt Q02734); assay: Acceptor use by soluble α2,3-N sialyltransferase secreted from COS-1 cells (pBD122); type: biochemical; conditions: concentrated COS-1 media
T6 construct: made in house; host or cells: COS-1 cells (transient, culture medium)
T6 sequence (Q02734 29-374 limits assumed): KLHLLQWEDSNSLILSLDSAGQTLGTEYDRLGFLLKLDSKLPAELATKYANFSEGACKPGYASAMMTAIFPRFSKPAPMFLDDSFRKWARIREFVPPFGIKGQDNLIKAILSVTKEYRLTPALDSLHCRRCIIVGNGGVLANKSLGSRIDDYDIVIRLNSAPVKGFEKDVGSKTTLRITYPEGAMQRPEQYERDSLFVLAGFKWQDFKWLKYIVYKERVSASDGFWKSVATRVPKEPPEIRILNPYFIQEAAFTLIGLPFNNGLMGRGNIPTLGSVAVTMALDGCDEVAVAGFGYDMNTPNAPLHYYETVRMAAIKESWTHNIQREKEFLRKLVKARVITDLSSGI

Row | Relative rate (%) ST3O (ST3O; acceptor 2.0 mM) | Relative rate (%) ST3 (ST3; acceptor 2.0 mM) | Compound | Relative rate (%) ST3O (ST3O; acceptor 0.2 mM) | Relative rate (%) ST3N (ST3N; acceptor 0.2 mM) | Relative rate (%) ST3 (ST3; acceptor 0.2 mM) | other results
1 | 0% | 0% | CC(=O)N[C@H]1[C@H](O[C@H]2[C@@H](O)[C@@H](CO)O[C@@H](O[C@H]3[C@H](O)[C@@H](O)C(O)O[C@@H]3CO)[C@@H]2O)O[C@H](CO)[C@@H](O[C@@H]2O[C@@H](C)[C@@H](O)[C@@H](O)[C@@H]2O)[C@@H]1O[C@@H]1O[C@H](CO)[C@H](O)[C@H](O)[C@H]1O (stereo partly drawn) [Galβ1,3(Fucα1,4)GlcNAcβ1,3Galβ1,4Glc] | 0% | 0% | – | Relative rate (%) ST3N (ST3N; acceptor 2.0 mM): 0%
2 | 100% | 100% | CC(=O)N[C@H]1C(O)O[C@H](CO)[C@H](O)[C@@H]1O[C@@H]1O[C@H](CO)[C@H](O)[C@H](O)[C@H]1O (stereo partly drawn) [Galβ1,3GalNAc] | 100% | – | 100% | Relative Activity (%) Human (human ST3O): 100%; Relative Activity (%) Porcine (porcine ST3O): 100%
3 | – | – | CC(=O)N[C@H]1C(O)O[C@H](CO)[C@@H](O)[C@@H]1O[C@@H]1O[C@H](CO)[C@H](O)[C@H](O)[C@H]1O (stereo partly drawn) [Galβ1,3GlcNAc] | 2% | – | 0% | –
4 | 0% | 1% | CC(=O)N[C@H]1[C@H](O[C@H]2[C@@H](O)[C@@H](CO)O[C@@H](O[C@H]3[C@H](O)[C@@H](O)C(O)O[C@@H]3CO)[C@@H]2O)O[C@H](CO)[C@@H](O[C@@H]2O[C@H](CO)[C@H](O)[C@H](O)[C@H]2O)[C@@H]1O[C@@H]1O[C@@H](C)[C@@H](O)[C@@H](O)[C@@H]1O (stereo partly drawn) [Galβ1,4(Fucα1,3)GlcNAcβ1,3Galβ1,4Glc] | 0% | 0% | 0.1% | Relative rate (%) ST3N (ST3N; acceptor 2.0 mM): 0%
5 | 0.9% | 23% | CC(=O)N[C@H]1C(O)O[C@H](CO)[C@@H](O[C@@H]2O[C@H](CO)[C@H](O)[C@H](O)[C@H]2O)[C@@H]1O (stereo partly drawn) [Galβ1,4GlcNAc] | 0% | – | 4% | Relative Activity (%) Human (human ST3O): 0%; Relative Activity (%) Porcine (porcine ST3O): 0%
6 | – | – | .varies.1 -acid glycoprotein: intact glycoprotein examined as acceptor | – | – | – | sialic acid incorporation by ST3 enzyme (ST3): not any significant amount of sialic acid incorporated
7 | – | – | Asialo-α1 -acid glycoprotein: glycoprotein acceptor (Galβ1,4GlcNAc-R) | 0% | – | 51% | use as acceptor by secreted enzyme (α2,3-N sialyltransferase): capable of sialylating
8 | – | – | Asialofetuin: glycoprotein acceptor (Galβ1,3GalNAc-Thr/Ser and Galβ1,4GlcNAc-R) | 26% | – | 92% | –
9 | – | – | GalNAcβ1,4(NeuAcα2-3)Galβ1,4Glcβ1-Cer [GM2] | 0.3% | 0% | – | –
10 | – | – | GalNAcβ1,4Galβ1,4Glcβ1-Cer [Asialo-GM2] | 0.5% | 0% | 2% | –
11 | – | – | Galβ1,3GalNAcβ1,4(NeuAcα2-3)Galβ1,4Glcβ1-Cer [GM1] | 47% | 0% | 27% | Relative Activity (%) Human (human ST3O): 41%; Relative Activity (%) Porcine (porcine ST3O): 44%
12 | – | – | Galβ1,3GalNAcβ1,4Galβ1,4Glcβ,1-Cer [Asialo-GM1] | 88% | 8% | 64% | Relative Activity (%) Human (human ST3O): 84%; Relative Activity (%) Porcine (porcine ST3O): 85%
13 | – | – | Galβ1,4Glcβ1-Cer [LacCer] | 0.1% | 0% | 4% | –
14 | – | – | NeuAcα2,3Galβ1,4Glcβ1-Cer [GM3] | 0.1% | 0% | 0% | –
15 | – | – | intact fetuin: glycoprotein examined as acceptor | – | – | – | sialic acid incorporation by ST3 enzyme (ST3): not any significant amount of sialic acid incorporated

Row | Compound | Relative rate (%) ST3O (ST3O; acceptor 2.0 mM) | Relative rate (%) ST3 (ST3; acceptor 2.0 mM) | Relative rate (%) ST3O (ST3O; acceptor 0.2 mM) | Relative rate (%) ST3N (ST3N; acceptor 0.2 mM) | Relative rate (%) ST3 (ST3; acceptor 0.2 mM) | other results
16 | CC(=O)N[C@H]1[C@H](O[C@H]2[C@@H](O)[C@@H](CO)O[C@@H](O[C@H]3[C@H](O)[C@@H](O)C(O)O[C@@H]3CO)[C@@H]2O)O[C@H](CO)[C@@H](O)[C@@H]1O[C@@H]1O[C@H](CO)[C@H](O)[C@H](O)[C@H]1O (stereo partly drawn) [LNT, lacto-N-tetrose] | 3% | 2.3% | 0.5% | 100% | 0% | Relative activity (%) Rat (rat ST3N): 100%; Relative Activity (%) Human (human ST3N): 100%; Relative rate (%) ST3N (ST3N; acceptor 2.0 mM): 100%
17 | CC(=O)N[C@H]1[C@H](O[C@H]2[C@@H](O)[C@@H](CO)O[C@@H](O[C@H]3[C@H](O)[C@@H](O)C(O)O[C@@H]3CO)[C@@H]2O)O[C@H](CO)[C@@H](O[C@@H]2O[C@H](CO)[C@H](O)[C@H](O)[C@H]2O)[C@@H]1O (stereo partly drawn) [LNnT, Galβ1,4GlcNAcβ1,3Galβ1,4Glc] | 0.5% | 49% | 0% | 4% | 24% | Relative activity (%) Rat (rat ST3N): 4%; Relative Activity (%) Human (human ST3N): 5%; Relative rate (%) ST3N (ST3N; acceptor 2.0 mM): 18%
